Data: the supplement of paper PMC10920090

Tests used:
MDA-MB-231 [1] = test: drug sensitivity score (DSS), cytotoxicity CellTox Green; higher = more cytotoxic; extreme values may be limits of the assay; settings: 72 h
MDA-MB-231 [2] = test: drug sensitivity score (DSS), cell viability CellTiter-Glo; higher = more sensitive; extreme values may be limits of the assay; settings: 72 h
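Throughout, for drug sensitivity score (DSS), cytotoxicity CellTox Green: DSS summarises each dose–response curve by combining IC50, EC50, maximal inhibition and efficacy across drug concentrations.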

Row | SMILES | drug sensitivity score (MDA-MB-231 [1]; shRNA: shPPFIA1_1) [DSS] | drug sensitivity score (MDA-MB-231 [1]; shRNA: shScramble) [DSS] | drug sensitivity score (MDA-MB-231 [2]; shRNA: shPPFIA1_1) [DSS] | drug sensitivity score (MDA-MB-231 [2]; shRNA: shScramble) [DSS]
1 | C=CCc1cccc(/C=N/NC(=O)CN2CCN(Cc3ccccc3)CC2)c1O [PAC-1] | 0 | 0 | 2.7 | 3.8
2 | Cc1c(C(=O)Nc2ccc(N3C[C@@H](C)O[C@@H](C)C3)nc2)cccc1-c1ccc(OC(F)(F)F)cc1 [Sonidegib] | 0 | 0 | 1.1 | 2.4
3 | CC[C@@H]1C(=O)N(C)c2cnc(Nc3ccc(C(=O)NC4CCN(C)CC4)cc3OC)nc2N1C1CCCC1 [BI 2536] | 0.3 | 0 | 0 | 11.3
4 | CNC(=O)c1cc(Oc2ccc(NC(=O)Nc3cc(C(C)(C)C)nn3-c3ccc4ncccc4c3)c(F)c2)ccn1 [Rebastinib] | 0 | 0 | 0 | 0
5 | FC(F)c1nc2ccccc2n1-c1nc(N2CCOCC2)nc(N2CCOCC2)n1 [ZSTK474] | 0 | 0 | 0.2 | 6.1
6 | Cc1ccc(C(=O)Nc2ccc(Oc3cc4cnn(C)c4cc3-c3cn[nH]c3)c(F)c2)c(=O)n1-c1ccc(F)cc1 [Merestinib] | 0 | 0 | 9 | 0
7 | COc1nc(N)nc2c1ncn2[C@@H]1O[C@H](CO)[C@@H](O)[C@@H]1O [Nelarabine] | 0 | 0 | 0 | 0
8 | COc1cccc2c1c(O)c(C(=O)N(C)c1ccc(C(F)(F)F)cc1)c(=O)n2C [Tasquinimod] | 0 | 0 | 0 | 3.4
9 | Cc1ccc2nc(CN(CCN(Cc3nc4ccc(C)cc4[nH]3)Cc3nc4ccc(C)cc4[nH]3)Cc3nc4ccc(C)cc4[nH]3)[nH]c2c1 | 6.8 | 1.9 | 0.6 | 2.6
10 | N#CC(c1ccnc(OCc2ccc(CN3CCOCC3)cc2)n1)c1nc2ccccc2s1 (stereo unspecified) [Bentamapimod] | 0 | 0 | 1.6 | 3.7
11 | CO[C@H](C(=O)[C@@H](O)[C@@H](C)O)[C@@H]1Cc2cc3cc(O[C@H]4C[C@@H](O[C@@H]5C[C@@H](O)[C@H](O)[C@@H](C)O5)[C@H](O)[C@@H](C)O4)c(C)c(O)c3c(O)c2C(=O)[C@H]1O[C@H]1C[C@@H](O[C@@H]2C[C@@H](O)[C@@H](O[C@@H]3C[C@](C)(O)[C@H](O)[C@@H](C)O3)[C@@H](C)O2)[C@H](O)[C@@H](C)O1 [Plicamycin] | 8.5 | 7.1 | 6.2 | 11.6
12 | CN(Cc1cnc2nc(N)nc(N)c2n1)c1ccc(C(=O)N[C@@H](CCC(=O)O)C(=O)O)cc1 [Methotrexate] | 0 | 0 | 2.8 | 4
13 | C=CC[C@@H]1/C=C(\C)C[C@H](C)C[C@H](OC)[C@H]2O[C@@](O)(C(=O)C(=O)N3CCCC[C@H]3C(=O)O[C@H](/C(C)=C/[C@@H]3CC[C@@H](O)[C@H](OC)C3)[C@H](C)[C@@H](O)CC1=O)[C@H](C)C[C@@H]2OC [Tacrolimus] | 0 | 0 | 0 | 0
14 | CC1(COc2ccc3c(c2)ncn3-c2ccc3cccc(N4CCC(N)CC4)c3n2)COC1 [Crenolanib] | 7.2 | 4.6 | 5.3 | 9.4
15 | Cc1cc(C)c(/C=C2\C(=O)Nc3ccccc32)[nH]1 [Semaxanib] | 0.2 | 3.5 | 0 | 0
16 | CC(C)[C@@H](CS(=O)(=O)C(C)C)N1C(=O)[C@@](C)(CC(=O)O)C[C@H](c2cccc(Cl)c2)[C@H]1c1ccc(Cl)cc1 [AMG-232] | 12.7 | 0 | 0 | 0
17 | CNC(=O)c1cc(COc2nnc(Nc3ccc(Cl)cc3)c3ccoc23)ccn1 [Telatinib] | 0 | 0 | 0 | 0
18 | CNC(=O)c1ccc(N2C(=S)N(c3cnc(C#N)c(C(F)(F)F)c3)C(=O)C23CCC3)cc1F [ARN 509] | 0 | 0 | 0 | 0.4
19 | Cn1ncc(Cl)c1-c1cc(C(=O)N[C@H](CN)Cc2cccc(F)c2)sc1Cl [Afuresertib] | 0 | 0 | 0.5 | 1.6
20 | COc1cc2c(cc1-c1c(C)noc1C)ncc1[nH]c(=O)n([C@H](C)c3ccccn3)c12 [I-BET151] | 0 | 0 | 0 | 6.1
21 | CC(C)(C#N)c1cc(Cn2cncn2)cc(C(C)(C)C#N)c1 [Anastrozole] | 0 | 0 | 0 | 0
22 | CC[C@@]1(O)C(=O)OCc2c1cc1n(c2=O)Cc2cc3ccccc3nc2-1 [Camptothecin] | 2 | 0.7 | 0.8 | 10.4

Row | SMILES | drug sensitivity score (MDA-MB-231 [1]; shRNA: shPPFIA1_1) [DSS] | drug sensitivity score (MDA-MB-231 [1]; shRNA: shScramble) [DSS] | drug sensitivity score (MDA-MB-231 [2]; shRNA: shPPFIA1_1) [DSS] | drug sensitivity score (MDA-MB-231 [2]; shRNA: shScramble) [DSS]
23 | Cn1cc(-c2cnn3c(N)c(Br)c([C@@H]4CCCNC4)nc23)cn1 [MK-8776] | 0 | 0 | 0 | 2.9
24 | Cn1cc(C2=Nc3cc(NC(=O)C(N)C4CCCCC4)cc4c3C2=CNNC4=O)cn1 (stereo unspecified) | 3 | 0.8 | 7.8 | 9.4
25 | C[C@@H](Oc1cc(-c2cnn(C3CCNCC3)c2)cnc1N)c1c(Cl)ccc(F)c1Cl [Crizotinib] | 0 | 0 | 0.1 | 0
26 | CC[C@H](Nc1ncnc2[nH]cnc12)c1nc2cccc(F)c2c(=O)n1-c1ccccc1 [Idelalisib] | 0 | 0 | 0 | 0.9
27 | CNC(=O)c1ccc2cc([C@@]3(O)CCn4cncc43)ccc2c1 [Orteronel] | 0 | 0 | 0 | 0
28 | Cc1cc(-c2nc(-c3ccc(OC(F)(F)F)cc3)no2)nn1Cc1ccnc(N2CCN(C3CC3)CC2)c1 [BAY 87-2243] | 0 | 0 | 14.7 | 13
29 | CC(=O)c1cnc2ccc(-c3cc(Cl)c(O)c(Cl)c3)nc2c1N[C@H]1CC[C@H](CN(C)C)CC1 [OTSSP167] | 0 | 0.2 | 22.4 | 9.1
30 | CC(C)N(CCCNC(=O)Nc1ccc(C(C)(C)C)cc1)C[C@H]1O[C@@H](n2cc(Br)c3c(N)ncnc32)[C@H](O)[C@@H]1O [SGC0946] | 5.5 | 0.6 | 5 | 1.5
31 | C=CC(=O)Nc1cc(Nc2nccc(-c3cn(C)c4ccccc34)n2)c(OC)cc1N(C)CCN(C)C [Osimertinib] | 0 | 0 | 1.2 | 3.9
32 | CN1CC[C@H](c2c(O)cc(O)c3c(=O)cc(-c4ccccc4Cl)oc23)[C@H](O)C1 [Alvocidib] | 11.9 | 7.4 | 10.6 | 15.2
33 | COc1cc2nccc(Oc3ccc(NC(=O)Nc4cc(C)on4)c(Cl)c3)c2cc1OC [Tivozanib] | 3.3 | 0 | 0 | 1.9
34 | CNC(=O)c1ccccc1Sc1ccc2c(/C=C/c3ccccn3)n[nH]c2c1 [Axitinib] | 0 | 0 | 0 | 0.2
35 | Nc1ncnc2c1nc(N)n2[C@@H]1O[C@H](CO)[C@@H](O)[C@H]1O [8-amino-adenosine] | 12.2 | 13.8 | 18.1 | 22.8
36 | COc1cc(O)c2c(c1)/C=C/C[C@H](O)[C@H](O)C(=O)/C=C\C[C@H](C)OC2=O [(5Z)-7-Oxozeaenol] | 0.4 | 2.7 | 0 | 2.1
37 | Nc1nc(Nc2ccc3c(c2)CC[C@@H](N2CCCC2)CC3)nn1-c1cc2c(nn1)-c1ccccc1CCC2 [BGB324] | 4.4 | 6.1 | 10.6 | 9.5
38 | COc1ccc(Cn2ccc3ccc(C(=O)NO)cc32)cc1 | 10.5 | 0 | 0 | 0
39 | COC1=CC(c2cc3ccccc3[nH]2)=N/C1=C\c1[nH]c(C)cc1C [Obatoclax] | 0 | 0 | 0 | 0
40 | COc1cc(Nc2ncc(F)c(Nc3ccc4c(n3)N(COP(=O)(O)O)C(=O)C(C)(C)O4)n2)cc(OC)c1OC [Fostamatinib] | 1.6 | 0.8 | 1 | 5.3
41 | O=C(Nc1ccc(OC(F)(F)F)cc1)c1sccc1NCc1ccnc2ccccc12 [OSI-930] | 0 | 0.9 | 4.5 | 8
42 | Cc1ccc(F)c(NC(=O)Nc2ccc(-c3cccc4[nH]nc(N)c34)cc2)c1 [Linifanib] | 0 | 0 | 0 | 0
43 | O=C(O)CCCCC(CCSCc1ccccc1)SCc1ccccc1 (stereo unspecified) [CPI-613] | 0 | 0 | 0 | 0
44 | CCNC(=O)Nc1ccc(-c2nc3c(c(N4CCOC[C@@H]4C)n2)CCN(C2COC2)C3)cc1 [RG-7603] | 0 | 0 | 0 | 2.7
